Our source for the IC50 values is patent US20100168105A1, “Spirocyclopropyl Piperidine Derivatives” (priority 2007, published 2010).

The target of experiment [1] is T1, human Histamine H3 receptor (hH3R) (Homo sapiens, UniProt Q9Y5N1).
T1 construct: expressed in transfected cells; host or cells: CHO cells (membranes)
The experiment can be described thus: Guanosine 5'-O-(3-[35S]thio)triphosphate [GTPγS] Binding Assay. In kind it is biochemical. Particulars: antagonist activity; membranes from CHO cells expressing hH3R, (R)-α-methyl histamine 30 nM, [35S]GTPγS 0.2 nM, 90 minutes. The method, then: Guanosine 5′-O-(3-[^35]thio)triphosphate [GTPγS] Binding Assay
The GTPγS binding assay can be used to investigate antagonist properties of compounds in CHO cells (Chinese Hamster Ovary) transfected with human Histamine H3 receptor (hH3R). […] To determine antagonist activity, (R)-α-methyl histamine (30 nM) is added in 96 well SPA plate with [^35S]GTPγS (0.2 nM) and various concentration of H3R antagonists. The GTPγS binding assay is started with addition of the mixture membrane/saponine/GDP and incubated for 90 minutes at room temperature. The amount of bound [^35S]GTPγS is determined by using the MicroBeta Trilux counter (PerkinElmer). The percentage of [^35S]GTPγS bound in each sample is calculated as a percentage of that bound control sample incubated in absence of H3 antagonist. Duplicate determinations are obtained for each concentration, and the data are analyzed using ExcelFit4 to obtain the IC50.

Experiment [2] concerns the target human histamine H3 receptors (full-length H3, isoform 445) (Homo sapiens, UniProt Q9Y5N1). Particulars: hH3 binding IC50 (nM), inhibition of 1.4 nM [3H]-N-α-methylhistamine binding to CHO-K1 membranes expressing human H3, SPA, 1.5 hr.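 Further: scintillation counts read after the 1.5 hr incubation at room temperature with shaking, Imetit serving as reference control.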
Protocol: Histamine H3 SPA with the Agonist Radioligand [^3H]—N-α-methylhistamine
Reproducibility of the assay is such that IC50 curves can be generated in singlicate. Single poke (SP) testing was done in triplicate.
Membranes, prepared from CHO-K1 cells stably expressing the human histamine H3 receptor, were obtained from ACS.
Tested formula I compounds were provided as solubilized samples in neat DMSO. Serial dilutions were performed in DMSO.
Plates were read on a Perkin Elmer TopCount. CPM data were used to analyze unless DPM data generated by a quench curve were required.
• 1. 1 mg/ml BSA was added to assay buffer (AB) on day of assay. • 2. […] Buffer volume was split between beads and membranes to allow for polytroning of membranes prior to addition to beads. • a. […] Waited a minimum of 15 minutes prior to adding membranes (See b. below.). • b. […] The homogenized membrane mixture was combined with the beads and a minimum of 30 minutes was waited prior to dispensing to plate. • 3. Formula I compounds: For Single Poke, 2 μl 1 mM of a compound in accordance with formula I was dispensed to Optiplates (triplicate plates) for final concentration of 10 μM. […] Imetit (see below) was used as a control. • 4. […] 5 μl samples were calculated in quadruplicate on the β counter. […] (For IC50s, use final concentration on calculation tab of ABase template.)
• 1. […] 2 μl of the formula I compound dilution was mixed and then transferred into assay plates. DMSO was removed and 2 μl of 100 μM Imetit was added to the wells. • 3. 178 μl bead/membrane mixture was dispensed into the assay plate. • 4. 20 μl [^3H]-NAMH was added with Rapid Plate. The assay plate was sealed and incubated for 1.5 hr on RT shaker at speed ˜6.5. • 5. The assay plate was subsequently centrifuged at 1000 rpm for 10 minutes. • 6. The count was performed on TopCount using one of the 3H SPA H3 Quench programs.
The DPM data was analyzed when tSIS was less than that associated with 70% of full scale on the quench curve (tSIS<25%). Otherwise, CPM data was used.

The term pIC50 denotes the IC50 on a negative log10 scale, so that one unit is a factor of ten. A high value points to a small IC50. What is called IC50 is the concentration that inhibits the measured activity by half. A high value points to weaker potency.

pIC50: −log10 of the molar value.

Chain of human histamine H3 receptors (full-length H3, isoform 445) (Q9Y5N1 whole entry, canonical isoform): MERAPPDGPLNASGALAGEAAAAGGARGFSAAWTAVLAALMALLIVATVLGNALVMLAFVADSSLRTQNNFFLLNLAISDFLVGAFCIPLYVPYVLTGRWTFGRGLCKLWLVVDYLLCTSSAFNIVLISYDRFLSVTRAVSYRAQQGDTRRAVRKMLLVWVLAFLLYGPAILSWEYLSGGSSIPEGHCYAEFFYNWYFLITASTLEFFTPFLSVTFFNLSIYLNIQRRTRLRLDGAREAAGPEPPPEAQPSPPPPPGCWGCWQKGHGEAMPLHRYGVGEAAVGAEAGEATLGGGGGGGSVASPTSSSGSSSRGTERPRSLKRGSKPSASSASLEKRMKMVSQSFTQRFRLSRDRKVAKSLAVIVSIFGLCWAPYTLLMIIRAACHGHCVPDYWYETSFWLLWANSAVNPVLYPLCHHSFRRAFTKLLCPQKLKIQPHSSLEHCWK
T1 sequence (Q9Y5N1 whole entry): as the sequence (Q9Y5N1 whole entry, canonical isoform) above

With `O=C(C1CC12CCN(CCc1ccccc1)CC2)N1CCN(C2CCCCC2)CC1` (single isomer, unassigned) [Example 17, (4-Cyclohexyl-piperazin-1-yl)-(6-phenethyl-6-aza-spiro[2.5]oct-1-yl)-methanone], the pIC50 in experiment [1] was 7.79. In addition, the IC50 in experiment [2] turned out to be 27.4 nM. In experiment [1], `O=C(C1CC12CCN(CCc1ccccc1)CC2)N1CCN(C2CCCCC2)CC1` (single isomer, unassigned) [Example 18, (4-Cyclohexyl-piperazin-1-yl)-(6-phenethyl-6-aza-spiro[2.5]oct-1-yl)-methanone] had a pIC50 of 6.90. Besides, the IC50 in experiment [2] was 407 nM.

`O=C(C1CC12CCN(C1CCCCC1)CC2)N1CCN(C2CCC2)CC1` (single isomer, unassigned) [Example 26, (4-Cyclobutyl-piperazin-1-yl)-(6-cyclohexyl-6-aza-spiro[2.5]oct-1-yl)-methanone] gave a pIC50 in experiment [1] of 8.18. The compound also yielded an IC50 in experiment [2] of 1.35 nM. The like results for `O=C(C1CC12CCN(C1CCCCC1)CC2)N1CCN(C2CCC2)CC1` (single isomer, unassigned) [Example 27, (4-Cyclobutyl-piperazin-1-yl)-(6-cyclohexyl-6-aza-spiro[2.5]oct-1-yl)-methanone] were, in that order, 7.36 and 7.68 nM.

As for `CC(C)N1CCN(C(=O)C2CC23CCN(C2CCOCC2)CC3)CC1` (single isomer, unassigned) [Example 28, (4-Isopropyl-piperazin-1-yl)-[6-(tetrahydro-pyran-4-yl)-6-aza-spiro[2.5]oct-1-yl]-methanone], in experiment [1], the pIC50 is 7.88. In experiment [2], the IC50 was found to be 2.66 nM.

As to `CC(C)N1CCN(C(=O)C2CC23CCN(C2CCOCC2)CC3)CC1` (single isomer, unassigned) [Example 29, (4-Isopropyl-piperazin-1-yl)-[6-(tetrahydro-pyran-4-yl)-6-aza-spiro[2.5]oct-1-yl]-methanone], in experiment [1], the pIC50 is 7.06. For the same compound, in experiment [2], the IC50 stood at 50.9 nM. As to `O=C(C1CC12CCN(C1CCOCC1)CC2)N1CCN(C2CCCCC2)CC1` (stereo not shown) [Example 1, (4-Cyclohexyl-piperazin-1-yl)-[6-(tetrahydro-pyran-4-yl)-6-aza-spiro[2.5]oct-1-yl]-methanone], the pIC50 in experiment [1] is 7.89. In addition, the IC50 in experiment [2] was 33.6 nM. Compound `CN1CCN(C(=O)C2CC23CCN(C2CCOCC2)CC3)CC1` (stereo not shown) [Example 7, (4-Methyl-piperazin-1-yl)-[6-(tetrahydro-pyran-4-yl)-6-aza-spiro[2.5]oct-1-yl]-methasone] showed a pIC50 in experiment [1] of 5.92. The IC50 in experiment [2] was 1400 nM. The like results for `O=C(C1CC12CCN(C1CCOCC1)CC2)N1CCN(C2CCC2)CC1` (stereo not shown) [Example 8, (4-Cyclobutylpiperazin-1-yl)(6-(tetrahydro-2H-pyran-4-yl)-6-azaspiro[2.5]octan-1-yl)methanone] were, in that order, 8.44 and 4.1 nM. Consider `O=C(C1CC12CCN(C1CCOCC1)CC2)N1CCN(C2CC2)CC1` (stereo not shown) [Example 9, (4-Cyclopropylpiperazin-1-yl)(6-(tetrahydro-2H-pyran-4-yl)-6-azaspiro[2.5]octan-1-yl)methanone], for which the pIC50 in experiment [1] is 7.72. The IC50 in experiment [2] was 33.5 nM. The like results for `CC(C)N1CCN(C(=O)C2CC23CCN(C2CCOCC2)CC3)CC1` (stereo not shown) [Example 10, (4-Isopropylpiperazin-1-yl)(6-(tetrahydro-2H-pyran-4-yl)-6-azaspiro[2.5]octan-1-yl)methanone] were, in that order, 8.49 and 9.02 nM. `O=C(C1CC12CCN(C1CCOCC1)CC2)N1CCN(C2CCCCCC2)CC1` (stereo not shown) [Example 11, (4-Cycloheptylpiperazin-1-yl)(6-(tetrahydro-2H-pyran-4-yl)-6-azaspiro[2.5]octan-1-yl)methanone] showed a pIC50 in experiment [1] of 7.13. The compound also gave an IC50 in experiment [2] of 196 nM.

Consider `O=C(C1CC12CCN(C1CCOCC1)CC2)N1CCN(C2CCCC2)CC1` (stereo not shown) [Example 12, (4-cyclopentylpiperazin-1-yl)(6-(tetrahydro-2H-pyran-4-yl)-6-azaspiro[2.5]octan-1-yl)methanone], for which the pIC50 in experiment [1] was 8.06. The IC50 in experiment [2] is 4.43 nM. For `O=C(C1CC12CCN(C1CCOCC1)CC2)N1CCN(c2ccncc2)CC1` (stereo not shown) [Example 14, (4-Pyridin-4-yl-piperazin-1-yl)-[6-(tetrahydro-pyran-4-yl)-6-aza-spiro[2.5]oct-1-yl]-methanone], the pIC50 in experiment [1] is 6.86. Also, the IC50 in experiment [2] came to 26.1 nM. The like results for `O=C(C1CC12CCN(CCc1ccccc1)CC2)N1CCN(C2CCCCC2)CC1` (stereo not shown) [Example 16, (4-Cyclohexyl-piperazin-1-yl)-(6-phenethyl-6-aza-spiro[2.5]oct-1-yl)-methanone] were, in that order, 7.78 and 65.2 nM. Taken in the same sequence, the figures for `O=C(C1CC12CCN(C1CCCCC1)CC2)N1CCN(C2CCCCC2)CC1` (stereo not shown) [Example 19, (6-Cyclohexyl-6-aza-spiro[2.5]oct-1-yl)-(4-cyclohexyl-piperazin-1-yl)-methanone] were 8.00 and 56.5 nM. For `CN1CCC(N2CCC3(CC2)CC3C(=O)N2CCN(C3CCCCC3)CC2)CC1` (stereo not shown) [Example 20, (4-Cyclohexyl-piperazin-1-yl)-[6-(1-methyl-piperidin-4-yl)-6-aza-spiro[2.5]oct-1-yl]-methanone], in experiment [1], the pIC50 is 7.65. The compound also gave an IC50 in experiment [2] of 97.2 nM. The like results for `CC(C)N1CCC2(CC1)CC2C(=O)N1CCN(C2CCCCC2)CC1` (stereo not shown) [Example 21, (4-Cyclohexyl-piperazin-1-yl)-(6-isopropyl-6-aza-spiro[2.5]oct-1-yl)-methanone] were, in that order, 7.71 and 141 nM. In experiment [1], `O=C(C1CC12CCN(C1CCC1)CC2)N1CCN(C2CCOCC2)CC1` (stereo not shown) [Example 22, (6-Cyclobutyl-6-aza-spiro[2.5]oct-1-yl)-[4-(tetrahydro-pyran-4-yl)-piperazin-1-yl]-methanone] showed a pIC50 of 7.17. Moreover, the IC50 in experiment [2] stood at 209 nM. Taken in the same sequence, the figures for `O=C(C1CC12CCN(C1CCCSC1)CC2)N1CCN(C2CCC2)CC1` (stereo not shown) [Example 30, (4-Cyclobutyl-piperazin-1-yl)-[6-(tetrahydro-thiopyran-3-yl)-6-aza-spiro[2.5]oct-1-yl]-methanone] were 7.84 and 10.1 nM. In experiment [1], `O=C(C1CC12CCN(C1CCCCC1)CC2)N1CCN(C2CCC2)CC1` (stereo not shown) [Example 31, (4-Cyclobutyl-piperazin-1-yl)-(6-cyclohexyl-6-aza-spiro[2.5]oct-1-yl)-methanone] had a pIC50 of 7.87. Further, the IC50 in experiment [2] was found to be 11.3 nM. In experiment [2], `COc1cccc(N2CCC3(CC2)CC3C(=O)N2CCN(C3CCC3)CC2)n1` (stereo not shown) [Example 41, (4-Cyclobutyl-piperazin-1-yl)-[6-(6-methoxy-pyridin-2-yl)-6-aza-spiro[2.5]oct-1-yl]-methanone] displayed a 50% inhibitory concentration (IC50) of 542 nM. On the same count and under the same terms, to `O=C(C1CC12CCN(c1cccc(Cl)n1)CC2)N1CCN(C2CCC2)CC1` (stereo not shown) [Example 42, [6-(6-Chloro-pyridin-2-yl)-6-aza-spiro[2.5]oct-1-yl]-(4-cyclobutyl-piperazin-1-yl)-methanone] belongs 594 nM; to `COCCN1CCC2(CC1)CC2C(=O)N1CCN(C2CCCCC2)CC1` (stereo not shown) [Example 43, (4-Cyclohexyl-piperazin-1-yl)-[6-(2-methoxy-ethyl)-6-aza-spiro[2.5]oct-1-yl]-methanone], 615 nM. Compound `O=C(C1CC12CCN(c1ccccn1)CC2)N1CCN(C2CCC2)CC1` (stereo not shown) [Example 44, (4-Cyclobutyl-piperazin-1-yl)-(6-pyridin-2-yl-6-aza-spiro[2.5]oct-1-yl)-methanone] yielded a half-inhibitory concentration (IC50) in experiment [2] of 736 nM. Same read-out and setting: as for `Cc1ccc(N2CCC3(CC2)CC3C(=O)N2CCN(C3CCC3)CC2)cc1` (stereo not shown) [Example 45, (4-Cyclobutyl-piperazin-1-yl)-(6-p-tolyl-6-aza-spiro[2.5]oct-1-yl)-methanone], the figure is 791 nM; as for `O=C(C1CC12CCN(c1ccc(C(F)(F)F)cn1)CC2)N1CCN(C2CCCCC2)CC1` (stereo not shown) [Example 46, (4-Cyclohexyl-piperazin-1-yl)-[6-(5-trifluoromethyl-pyridin-2-yl)-6-aza-spiro[2.5]oct-1-yl]-methanone], 10000 nM; as for `O=C(C1CC12CCN(c1ccc3c(c1)OCO3)CC2)N1CCN(C2CCCCC2)CC1` (stereo not shown) [Example 47, (6-Benzo[1,3]dioxol-5-yl-6-aza-spiro[2.5]oct-1-yl)-(4-cyclohexyl-piperazin-1-yl)-methanone], 5170 nM.

In experiment [1], `O=C(C1CC12CCN(C1CCOCC1)CC2)N1CCN(c2cccnc2)CC1` (stereo not shown) [Example 48, (4-(pyridin-3-yl)piperazin-1-yl)(6-(tetrahydro-2H-pyran-4-yl)-6-azaspiro[2.5]octan-1-yl)methanone] showed a pIC50 of 6.51. The same measure, in the same setting: to `Cc1cc(N2CCN(C(=O)C3CC34CCN(C3CCOCC3)CC4)CC2)ccn1` (stereo not shown) [Example 49, (4-(2-methylpyridin-4-yl)piperazin-1-yl)(6-(tetrahydro-2H-pyran-4-yl)-6-azaspiro[2.5]octan-1-yl)methanone] belongs 6.60.

Take `Cc1cnccc1N1CCN(C(=O)C2CC23CCN(C2CCOCC2)CC3)CC1` (stereo not shown) [Example 50, (4-(3-methylpyridin-4-yl)piperazin-1-yl)(6-(tetrahydro-2H-pyran-4-yl)-6-azaspiro[2.5]octan-1-yl)methanone]: the pIC50 in experiment [1] was 6.94.
